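Protocol summary: plate cells (96-well), add compound at 5 concentrations, incubate 48 h, interpolate endpoints linearly. GI50: concentration for 50% inhibition of growth. Definition used: TGI = concentration required for complete inhibition of growth.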
How the values were obtained:
Test in all cases: NCI tumour cell line growth inhibition, 48 h
786-0 renal = tested on: 786-0 renal
A498 renal = tested on: A498 renal
A549 NSCLC = tested on: A549 NSCLC
ACHN renal = tested on: ACHN renal
BT-549 breast = tested on: BT-549 breast
CAKI-1 renal = tested on: CAKI-1 renal
CCRF-CEM leukemia = tested on: CCRF-CEM leukemia
COLO 205 colon = tested on: COLO 205 colon
DU-145 prostate = tested on: DU-145 prostate
HCC-2998 colon = tested on: HCC-2998 colon
HCT-116 colon = tested on: HCT-116 colon
HCT-15 colon = tested on: HCT-15 colon
HL-60(TB) leukemia = tested on: HL-60(TB) leukemia
HOP-62 NSCLC = tested on: HOP-62 NSCLC
HOP-92 NSCLC = tested on: HOP-92 NSCLC
HS 578T breast = tested on: HS 578T breast
HT29 colon = tested on: HT29 colon
IGROV1 ovarian = tested on: IGROV1 ovarian
KM12 colon = tested on: KM12 colon
LOX IMVI melanoma = tested on: LOX IMVI melanoma
M14 melanoma = tested on: M14 melanoma
MALME-3M melanoma = tested on: MALME-3M melanoma
MCF7 breast = tested on: MCF7 breast
MDA-MB-231 breast = tested on: MDA-MB-231 breast
MDA-MB-435 = tested on: MDA-MB-435
MOLT-4 leukemia = tested on: MOLT-4 leukemia
NCI-H226 lung = tested on: NCI-H226 lung
NCI-H23 lung = tested on: NCI-H23 lung
NCI-H460 lung = tested on: NCI-H460 lung
NCI-H522 lung = tested on: NCI-H522 lung
NCI/ADR-RES ovarian = tested on: NCI/ADR-RES ovarian
OVCAR-3 ovarian = tested on: OVCAR-3 ovarian
OVCAR-4 ovarian = tested on: OVCAR-4 ovarian
OVCAR-5 ovarian = tested on: OVCAR-5 ovarian
OVCAR-8 ovarian = tested on: OVCAR-8 ovarian
PC-3 prostate = tested on: PC-3 prostate
RPMI-8226 leukemia = tested on: RPMI-8226 leukemia
RXF 393 renal = tested on: RXF 393 renal
SF-268 CNS = tested on: SF-268 CNS
SF-295 CNS = tested on: SF-295 CNS
SF-539 CNS = tested on: SF-539 CNS
SK-MEL-28 melanoma = tested on: SK-MEL-28 melanoma
SK-MEL-5 melanoma = tested on: SK-MEL-5 melanoma
SK-OV-3 ovarian = tested on: SK-OV-3 ovarian
SN12C renal = tested on: SN12C renal
SNB-19 CNS = tested on: SNB-19 CNS
SNB-75 CNS = tested on: SNB-75 CNS
SR leukemia = tested on: SR leukemia
SW-620 colon = tested on: SW-620 colon
T-47D breast = tested on: T-47D breast
TK-10 renal = tested on: TK-10 renal
U251 CNS = tested on: U251 CNS
UACC-257 melanoma = tested on: UACC-257 melanoma
UACC-62 melanoma = tested on: UACC-62 melanoma
UO-31 renal = tested on: UO-31 renal

**Q.** Cc1ccc(S(=O)(=O)c2c(COC(=O)c3cccc(C)c3)c(-c3ccccc3)nn2C)cc1 was tested. Which GI50 (786-0 renal) did it give?
**A.** > 100 µM

**Q.** What about the TGI (786-0 renal) of the same compound?
**A.** > 100 µM

**Q.** What about the GI50 (A498 renal) of the same compound?
**A.** 29.5 µM

**Q.** What about the TGI (A498 renal) of the same compound?
**A.** > 100 µM

**Q.** What about the GI50 (A549 NSCLC) of the same compound?
**A.** > 100 µM

**Q.** What about the TGI (A549 NSCLC) of the same compound?
**A.** > 100 µM

**Q.** What about the GI50 (ACHN renal) of the same compound?
**A.** > 100 µM

**Q.** What about the TGI (ACHN renal) of the same compound?
**A.** > 100 µM

**Q.** And the GI50 (BT-549 breast)?
**A.** > 100 µM

**Q.** What about the TGI (BT-549 breast) of the same compound?
**A.** > 100 µM

**Q.** And the GI50 (CAKI-1 renal)?
**A.** > 100 µM

**Q.** What about the TGI (CAKI-1 renal) of the same compound?
**A.** > 100 µM

**Q.** What about the GI50 (CCRF-CEM leukemia) of the same compound?
**A.** > 100 µM

**Q.** What about the TGI (CCRF-CEM leukemia) of the same compound?
**A.** > 100 µM

**Q.** And the GI50 (COLO 205 colon)?
**A.** > 100 µM

**Q.** And the TGI (COLO 205 colon)?
**A.** > 100 µM

**Q.** And the GI50 (DU-145 prostate)?
**A.** > 100 µM

**Q.** And the TGI (DU-145 prostate)?
**A.** > 100 µM

**Q.** And the GI50 (HCC-2998 colon)?
**A.** > 100 µM

**Q.** What about the TGI (HCC-2998 colon) of the same compound?
**A.** > 100 µM

**Q.** And the GI50 (HCT-116 colon)?
**A.** > 100 µM

**Q.** And the TGI (HCT-116 colon)?
**A.** > 100 µM

**Q.** And the GI50 (HCT-15 colon)?
**A.** > 100 µM

**Q.** What about the TGI (HCT-15 colon) of the same compound?
**A.** > 100 µM

**Q.** What about the GI50 (HL-60(TB) leukemia) of the same compound?
**A.** > 100 µM

**Q.** And the TGI (HL-60(TB) leukemia)?
**A.** > 100 µM

**Q.** What about the GI50 (HOP-62 NSCLC) of the same compound?
**A.** > 100 µM

**Q.** And the TGI (HOP-62 NSCLC)?
**A.** > 100 µM

**Q.** What about the GI50 (HOP-92 NSCLC) of the same compound?
**A.** > 100 µM

**Q.** And the TGI (HOP-92 NSCLC)?
**A.** > 100 µM

**Q.** And the GI50 (HS 578T breast)?
**A.** > 100 µM

**Q.** What about the TGI (HS 578T breast) of the same compound?
**A.** > 100 µM

**Q.** What about the GI50 (HT29 colon) of the same compound?
**A.** > 100 µM

**Q.** And the TGI (HT29 colon)?
**A.** > 100 µM

**Q.** What about the GI50 (IGROV1 ovarian) of the same compound?
**A.** > 100 µM

**Q.** And the TGI (IGROV1 ovarian)?
**A.** > 100 µM

**Q.** What about the GI50 (KM12 colon) of the same compound?
**A.** > 100 µM

**Q.** What about the TGI (KM12 colon) of the same compound?
**A.** > 100 µM

**Q.** And the GI50 (LOX IMVI melanoma)?
**A.** > 100 µM

**Q.** What about the TGI (LOX IMVI melanoma) of the same compound?
**A.** > 100 µM

**Q.** What about the GI50 (M14 melanoma) of the same compound?
**A.** > 100 µM

**Q.** And the TGI (M14 melanoma)?
**A.** > 100 µM

**Q.** And the GI50 (MALME-3M melanoma)?
**A.** > 100 µM

**Q.** And the TGI (MALME-3M melanoma)?
**A.** > 100 µM

**Q.** What about the GI50 (MCF7 breast) of the same compound?
**A.** > 100 µM

**Q.** What about the TGI (MCF7 breast) of the same compound?
**A.** > 100 µM

**Q.** And the GI50 (MDA-MB-231 breast)?
**A.** > 100 µM

**Q.** And the TGI (MDA-MB-231 breast)?
**A.** > 100 µM

**Q.** And the GI50 (MDA-MB-435)?
**A.** > 100 µM

**Q.** What about the TGI (MDA-MB-435) of the same compound?
**A.** > 100 µM

**Q.** And the GI50 (MOLT-4 leukemia)?
**A.** > 100 µM

**Q.** And the TGI (MOLT-4 leukemia)?
**A.** > 100 µM

**Q.** And the GI50 (NCI-H226 lung)?
**A.** > 100 µM

**Q.** And the TGI (NCI-H226 lung)?
**A.** > 100 µM

**Q.** What about the GI50 (NCI-H23 lung) of the same compound?
**A.** > 100 µM

**Q.** And the TGI (NCI-H23 lung)?
**A.** > 100 µM

**Q.** And the GI50 (NCI-H460 lung)?
**A.** > 100 µM

**Q.** What about the TGI (NCI-H460 lung) of the same compound?
**A.** > 100 µM

**Q.** And the GI50 (NCI-H522 lung)?
**A.** > 100 µM

**Q.** What about the TGI (NCI-H522 lung) of the same compound?
**A.** > 100 µM

**Q.** What about the GI50 (NCI/ADR-RES ovarian) of the same compound?
**A.** > 100 µM

**Q.** And the TGI (NCI/ADR-RES ovarian)?
**A.** > 100 µM

**Q.** What about the GI50 (OVCAR-3 ovarian) of the same compound?
**A.** > 100 µM

**Q.** What about the TGI (OVCAR-3 ovarian) of the same compound?
**A.** > 100 µM

**Q.** What about the GI50 (OVCAR-4 ovarian) of the same compound?
**A.** > 100 µM

**Q.** What about the TGI (OVCAR-4 ovarian) of the same compound?
**A.** > 100 µM

**Q.** What about the GI50 (OVCAR-5 ovarian) of the same compound?
**A.** > 100 µM

**Q.** What about the TGI (OVCAR-5 ovarian) of the same compound?
**A.** > 100 µM

**Q.** What about the GI50 (OVCAR-8 ovarian) of the same compound?
**A.** > 100 µM

**Q.** What about the TGI (OVCAR-8 ovarian) of the same compound?
**A.** > 100 µM

**Q.** What about the GI50 (PC-3 prostate) of the same compound?
**A.** > 100 µM

**Q.** What about the TGI (PC-3 prostate) of the same compound?
**A.** > 100 µM

**Q.** And the GI50 (RPMI-8226 leukemia)?
**A.** > 100 µM

**Q.** And the TGI (RPMI-8226 leukemia)?
**A.** > 100 µM

**Q.** What about the GI50 (RXF 393 renal) of the same compound?
**A.** > 100 µM

**Q.** And the TGI (RXF 393 renal)?
**A.** > 100 µM

**Q.** What about the GI50 (SF-268 CNS) of the same compound?
**A.** > 100 µM

**Q.** What about the TGI (SF-268 CNS) of the same compound?
**A.** > 100 µM

**Q.** And the GI50 (SF-295 CNS)?
**A.** > 100 µM

**Q.** And the TGI (SF-295 CNS)?
**A.** > 100 µM

**Q.** What about the GI50 (SF-539 CNS) of the same compound?
**A.** > 100 µM

**Q.** What about the TGI (SF-539 CNS) of the same compound?
**A.** > 100 µM

**Q.** And the GI50 (SK-MEL-28 melanoma)?
**A.** > 100 µM

**Q.** What about the TGI (SK-MEL-28 melanoma) of the same compound?
**A.** > 100 µM

**Q.** And the GI50 (SK-MEL-5 melanoma)?
**A.** > 100 µM

**Q.** What about the TGI (SK-MEL-5 melanoma) of the same compound?
**A.** > 100 µM

**Q.** What about the GI50 (SK-OV-3 ovarian) of the same compound?
**A.** > 100 µM

**Q.** What about the TGI (SK-OV-3 ovarian) of the same compound?
**A.** > 100 µM

**Q.** And the GI50 (SN12C renal)?
**A.** > 100 µM

**Q.** And the TGI (SN12C renal)?
**A.** > 100 µM

**Q.** And the GI50 (SNB-19 CNS)?
**A.** > 100 µM

**Q.** What about the TGI (SNB-19 CNS) of the same compound?
**A.** > 100 µM

**Q.** And the GI50 (SNB-75 CNS)?
**A.** > 100 µM

**Q.** And the TGI (SNB-75 CNS)?
**A.** > 100 µM

**Q.** What about the GI50 (SR leukemia) of the same compound?
**A.** > 100 µM

**Q.** What about the TGI (SR leukemia) of the same compound?
**A.** > 100 µM

**Q.** And the GI50 (SW-620 colon)?
**A.** > 100 µM

**Q.** What about the TGI (SW-620 colon) of the same compound?
**A.** > 100 µM

**Q.** What about the GI50 (T-47D breast) of the same compound?
**A.** 8.53 µM

**Q.** And the TGI (T-47D breast)?
**A.** > 100 µM

**Q.** And the GI50 (TK-10 renal)?
**A.** > 100 µM

**Q.** And the TGI (TK-10 renal)?
**A.** > 100 µM

**Q.** What about the GI50 (U251 CNS) of the same compound?
**A.** > 100 µM

**Q.** What about the TGI (U251 CNS) of the same compound?
**A.** > 100 µM

**Q.** What about the GI50 (UACC-257 melanoma) of the same compound?
**A.** > 100 µM

**Q.** What about the TGI (UACC-257 melanoma) of the same compound?
**A.** > 100 µM

**Q.** What about the GI50 (UACC-62 melanoma) of the same compound?
**A.** 8.41 µM

**Q.** And the TGI (UACC-62 melanoma)?
**A.** > 100 µM

**Q.** And the GI50 (UO-31 renal)?
**A.** > 100 µM

**Q.** What about the TGI (UO-31 renal) of the same compound?
**A.** > 100 µM

Source: PubChem BioAssay (NCI)
